# pIC50: −log10 of the molar value.
# Legend:
# [1] = target: B-Raf (Homo sapiens, UniProt P15056); assay: B-Raf Accelerated MEK ATPase assay (BRAMA), Method A or B; format: biochemical
# In short: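 Activated Raf plus non-phosphorylated MEK drives MEK-mediated ATP hydrolysis; ADP formation coupled via pyruvate kinase/lactate dehydrogenase to NADH oxidation. Method A read kinetically; Method B used 150 nM final MEK and a single end-point read.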
# [2] = tested on: BT474 tumor cells; assay: Cell growth inhibition assay (CellTiter-Glo), BT474; format: cell-based, Human; conditions: 3 days incubation
# [3] = tested on: SK-MEL-3 tumor cells; assay: Cell growth inhibition assay (CellTiter-Glo), SK-MEL-3; format: cell-based, Human; conditions: for pIC50: Homo sapiens, SK-MEL3
# In short: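 Readout was CellTiter-Glo luminescence (total ATP, surrogate for cell number) after 3-day exposure at 37° C, 5% CO2 to 1:3 serial compound dilutions in 0.2% final DMSO. Seeding was 500 cells/well; IC50 derived by 4-parameter fit relative to vehicle-treated wells.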
# [4] = Method B: final MEK 150 nM, single end point read
# Chain of B-Raf (P15056 whole entry): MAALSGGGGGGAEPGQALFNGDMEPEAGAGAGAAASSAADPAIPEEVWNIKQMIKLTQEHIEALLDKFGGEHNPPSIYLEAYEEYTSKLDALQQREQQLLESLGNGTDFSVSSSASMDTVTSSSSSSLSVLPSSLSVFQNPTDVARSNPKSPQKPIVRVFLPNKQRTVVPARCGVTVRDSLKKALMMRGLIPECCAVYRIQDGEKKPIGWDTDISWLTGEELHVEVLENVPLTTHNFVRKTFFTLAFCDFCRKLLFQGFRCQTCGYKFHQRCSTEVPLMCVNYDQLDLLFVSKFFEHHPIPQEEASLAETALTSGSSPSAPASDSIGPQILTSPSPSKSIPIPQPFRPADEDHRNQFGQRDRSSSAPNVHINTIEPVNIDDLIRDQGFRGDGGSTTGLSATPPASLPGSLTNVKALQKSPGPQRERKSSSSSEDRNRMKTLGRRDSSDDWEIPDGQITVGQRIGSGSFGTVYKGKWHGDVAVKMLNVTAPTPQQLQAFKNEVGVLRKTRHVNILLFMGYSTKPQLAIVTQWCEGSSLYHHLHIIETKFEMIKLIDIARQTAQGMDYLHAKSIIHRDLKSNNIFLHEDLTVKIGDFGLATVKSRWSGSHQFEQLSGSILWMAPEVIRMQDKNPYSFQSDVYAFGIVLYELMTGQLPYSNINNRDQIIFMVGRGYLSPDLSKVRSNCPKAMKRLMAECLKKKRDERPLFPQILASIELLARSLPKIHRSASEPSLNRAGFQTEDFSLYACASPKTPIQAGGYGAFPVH
"pIC50 [1, 4]","pIC50 ([2]; Homo sapiens, BT-474, 72 h)",pIC50 [3],pIC50 ([1]; Method A),pIC50 [2],Structure (SMILES),Activity in SK-MEL-3 Tumor Cells [3]
> 7.00,< 6.00,> 7.00,,,CC(C)c1nc(-c2cccc(NS(=O)(=O)c3ccco3)c2)c(-c2ccnc(Nc3ccc(N4CCOCC4)nc3)n2)s1 [Example 53],
> 7.00,< 6.00,> 7.00,,,CC(=O)N1CCN(c2ccc(Nc3nccc(-c4oc(C(C)C)nc4-c4cccc(NS(=O)(=O)c5c(F)cccc5F)c4)n3)cn2)CC1 [Example 56],
> 7.00,< 6.00,6.00 to 7.00,,,CC(C)c1nc(-c2cccc(NS(=O)(=O)c3c(F)cccc3F)c2)c(-c2ccnc(Nc3ccc(N4CCOCC4)c(F)c3)n2)o1 [Example 57],
> 7.00,< 6.00,> 7.00,,,Nc1nc(-c2cccc(NS(=O)(=O)c3c(F)cccc3F)c2)c(-c2ccnc(Nc3ccc(N4CCOCC4)nc3)n2)s1 [Example 62],
,,6.00 to 7.00,> 7.00,< 6.00,CCNc1nc(-c2cccc(NS(=O)(=O)c3ccccc3)c2)c(-c2ccnc(Nc3ccc(OCCN4CCCC4)c(F)c3)n2)s1 [Example 65],
6.00 to 7.00,< 6.00,6.00 to 7.00,,,CC(=O)N1CCN(c2ccc(Nc3nccc(-c4sc(C(C)C)nc4-c4cccc(NS(=O)(=O)c5cccc(C(F)(F)F)c5)c4)n3)cn2)CC1 [Example 70],
> 7.00,< 6.00,> 7.00,,,CC(C)c1nc(-c2ccc(F)c(NS(=O)(=O)c3c(F)cccc3F)c2)c(-c2ccnc(Nc3ccc(N4CCN5CCOC[C@H]5C4)nc3)n2)s1 [Example 97],
> 7.00,< 6.00,6.00 to 7.00,,,CCOc1ccc(Nc2nccc(-c3sc(C(C)C)nc3-c3ccc(F)c(NS(=O)(=O)c4c(F)cccc4F)c3)n2)cc1N1CCN(CCF)CC1 [Example 98],
> 7.00,< 6.00,6.00 to 7.00,,,CC(C)(C)c1nc(-c2ccc(F)c(NS(=O)(=O)c3c(F)cccc3F)c2)c(-c2ccnc(Nc3ccc(N4CCN(CCF)CC4)c(F)c3)n2)s1 [Example 99],
> 7.00,< 6.00,> 7.00,,,CC(C)c1nc(-c2ccnc(NS(=O)(=O)c3c(F)cccc3F)c2)c(-c2ccnc(Nc3ccc(N4CCN(CCF)CC4)c(F)c3)n2)s1 [Example 100],
> 7.00,< 6.00,6.00 to 7.00,,,CC(C)c1nc(-c2cc(F)c(F)c(NS(=O)(=O)c3cccc(F)c3)c2)c(-c2ccnc(Nc3ccc(N4CCN(CCF)CC4)c(F)c3)n2)s1 [Example 101],
> 7.00,< 6.00,6.00 to 7.00,,,CC(C)c1nc(-c2ccc(F)c(NS(=O)(=O)c3c(F)cccc3F)c2)c(-c2ccnc(Nc3ccncc3)n2)s1 [Example 102],
> 7.00,< 6.00,> 7.00,,,CN1CCC(c2nc(-c3ccc(F)c(NS(=O)(=O)c4c(F)cccc4F)c3)c(-c3ccnc(Nc4ccc(N5CCOCC5)nc4)n3)s2)CC1 [Example 106],
> 7.00,< 6.00,6.00 to 7.00,,,CC(C)c1nc(-c2ccc(F)c(NS(=O)(=O)c3ccccc3C#N)c2)c(-c2ccnc(Nc3ccc(N4CCOCC4)nc3)n2)s1 [Example 107],
> 7.00,6.00 to 7.00,> 7.00,,,CCOc1ccc(Nc2nccc(-c3sc(N4CCCC4)nc3-c3cccc(NS(=O)(=O)c4c(F)cccc4F)c3)n2)cc1N1CCN(CCS(C)(=O)=O)CC1 [Example 109],
> 7.00,< 6.00,6.00 to 7.00,,,CN(C)c1nc(-c2ccc(F)c(NS(=O)(=O)c3c(F)cccc3F)c2)c(-c2ccnc(Nc3ccc(N4CCN(S(C)(=O)=O)CC4)nc3)n2)s1 [Example 112],
> 7.00,6.00 to 7.00,6.00 to 7.00,,,CC(C)c1nc(-c2ccc(F)c(NS(=O)(=O)c3c(F)cccc3F)c2)c(-c2ccnc(Nc3cccc(CCS(N)(=O)=O)c3)n2)s1 [Example 113],
6.00 to 7.00,< 6.00,,,,O=S(=O)(Nc1cc(-c2nc(N3CCCC3)oc2-c2ccnc(Nc3ccc(N4CCN(CCF)CC4)c(F)c3)n2)ccc1F)c1c(F)cccc1F [Example 114],+ (activity of >1 μM in SK-MEL-3 tumor cells)
> 7.00,< 6.00,6.00 to 7.00,,,Cc1cc(Nc2nccc(-c3sc(C(C)C)nc3-c3ccc(F)c(NS(=O)(=O)c4c(F)cccc4F)c3)n2)ccn1 [Example 116],
> 7.00,< 6.00,6.00 to 7.00,,,CC(C)c1nc(-c2ccc(F)c(NS(=O)(=O)c3c(F)cccc3F)c2)c(-c2ccnc(Nc3ccnc(N4CCOCC4)c3)n2)s1 [Example 117],

"pIC50 [1, 4]","pIC50 ([2]; Homo sapiens, BT-474, 72 h)",pIC50 [3],pIC50 ([1]; Method A),pIC50 [2],Structure (SMILES),Activity in SK-MEL-3 Tumor Cells [3]
> 7.00,< 6.00,> 7.00,,,COc1cc(N2CCN(CCS(C)(=O)=O)CC2)c(C)cc1Nc1nccc(-c2sc(C(C)(C)C)nc2-c2cccc(NS(=O)(=O)c3c(F)cccc3F)c2)n1 [Example 120],
> 7.00,< 6.00,6.00 to 7.00,,,O=S(=O)(Nc1cc(-c2nc(N3CCOCC3)sc2-c2ccnc(Nc3ccc(N4CCOCC4)nc3)n2)ccc1F)c1c(F)cccc1F [Example 121],
> 7.00,< 6.00,> 7.00,,,O=S(=O)(Nc1cccc(-c2nc(N3CCOCC3)sc2-c2ccnc(Nc3ccc(N4CCOCC4)nc3)n2)c1F)c1c(F)cccc1F [Example 122],
> 7.00,< 6.00,> 7.00,,,CC(C)c1nc(-c2cccc(NS(=O)(=O)c3c(F)cccc3F)c2F)c(-c2ccnc(Nc3ccc(N4CCOCC4)nc3)n2)s1 [Example 123],
> 7.00,< 6.00,,,,Cc1cc(N2CCOCC2)ncc1Nc1nccc(-c2sc(N3CCCC3)nc2-c2cccc(NS(=O)(=O)c3c(F)cccc3F)c2)n1 [Example 124],+ (activity of >1 μM in SK-MEL-3 tumor cells)
> 7.00,< 6.00,6.00 to 7.00,,,CN1CCN(c2nc(-c3ccc(F)c(NS(=O)(=O)c4c(F)cccc4F)c3)c(-c3ccnc(Nc4ccc(N5CCOCC5)nc4)n3)s2)CC1 [Example 126],
6.00 to 7.00,< 6.00,,,,O=S(=O)(Nc1cc(-c2nc(N3CCOCC3)sc2-c2ccnc(Nc3ccc4c(c3)OCCO4)n2)ccc1F)c1c(F)cccc1F [Example 127],+ (activity of >1 μM in SK-MEL-3 tumor cells)
6.00 to 7.00,6.00 to 7.00,> 7.00,,,COc1cc(N2CCN(CCS(C)(=O)=O)CC2)c(C)cc1Nc1nccc(-c2sc(N3CCOCC3)nc2-c2cccc(NS(=O)(=O)c3c(F)cccc3F)c2)n1 [Example 128],
> 7.00,< 6.00,> 7.00,,,CS(=O)(=O)c1cccc(Nc2nccc(-c3sc(N4CCOCC4)nc3-c3cccc(NS(=O)(=O)c4c(F)cccc4F)c3F)n2)c1 [Example 130],
> 7.00,< 6.00,> 7.00,,,Cc1cc(N2CCN(CCS(C)(=O)=O)CC2)ncc1Nc1nccc(-c2sc(C(C)C)nc2-c2cccc(NS(=O)(=O)c3c(F)cccc3F)c2)n1 [Example 131],
> 7.00,< 6.00,> 7.00,,,Cc1nc(-c2cccc(NS(=O)(=O)c3c(F)cccc3F)c2)c(-c2ccnc(Nc3ccc(N4CCOCC4)nc3)n2)s1 [Example 133],
> 7.00,< 6.00,> 7.00,,,CS(=O)(=O)c1cccc(Nc2nccc(-c3sc(N4CCOCC4)nc3-c3cccc(NS(=O)(=O)c4c(F)cccc4F)c3Cl)n2)c1 [Example 145],
> 7.00,< 6.00,> 7.00,,,O=S(=O)(Nc1cccc(-c2nc(N3CCOCC3)sc2-c2ccnc(Nc3ccc(N4CCOCC4)nc3)n2)c1Cl)c1c(F)cccc1F [Example 146],
> 7.00,6.00 to 7.00,> 7.00,,,CCNc1nc(-c2cccc(NS(=O)(=O)c3c(F)cccc3F)c2)c(-c2ccnc(Nc3ccc(N4CCOCC4)nc3)n2)s1 [Example 152],
> 7.00,< 6.00,> 7.00,,,O=S1(=O)Cc2ccc(Nc3nccc(-c4sc(N5CCOCC5)nc4-c4cccc(NS(=O)(=O)c5c(F)cccc5F)c4F)n3)cc2C1 [Example 155],
> 7.00,< 6.00,> 7.00,,,COc1ccc(S(C)(=O)=O)cc1Nc1nccc(-c2sc(N3CCOCC3)nc2-c2cccc(NS(=O)(=O)c3c(F)cccc3F)c2F)n1 [Example 157],
> 7.00,< 6.00,> 7.00,,,Cc1cc(Nc2nccc(-c3sc(C(C)(C)C)nc3-c3cccc(NS(=O)(=O)c4c(F)cccc4F)c3F)n2)ccn1 [Example 159],
> 7.00,< 6.00,> 7.00,,,O=S(=O)(Nc1cccc(-c2ncsc2-c2ccnc(Nc3ccc(N4CCOCC4)nc3)n2)c1)c1c(F)cccc1F [Example 162],
> 7.00,< 6.00,6.00 to 7.00,,,CCNc1nc(-c2ccc(F)c(NS(=O)(=O)c3c(F)cccc3F)c2)c(-c2ccnc(Nc3ccc(N4CCOCC4)nc3)n2)s1 [Example 166],
> 7.00,< 6.00,> 7.00,,,CS(=O)(=O)CCN1CCN(c2ccc(Nc3nccc(-c4oc(N5CCCC5)nc4-c4cccc(NS(=O)(=O)c5c(F)cccc5F)c4F)n3)cc2F)CC1 [Example 167],

Structure (SMILES),"pIC50 [1, 4]","pIC50 ([2]; Homo sapiens, BT-474, 72 h)",pIC50 [3],pIC50 ([1]; Method A),pIC50 [2],Activity in SK-MEL-3 Tumor Cells [3]
O=S(=O)(Nc1cccc(-c2nc(N3CCCCC3)sc2-c2ccnc(Nc3ccc(N4CCOCC4)nc3)n2)c1)c1c(F)cccc1F [Example 151],> 7.00,< 6.00,> 7.00,,,

# — US20110319392A1, “Thiazole Sulfonamide And Oxazole Sulfonamide Kinase Inhibitors” (priority 2009, published 2011)
